From patent publication US5759827A, “Acylated oligopeptides for transfecting cells” (Hoffmann-La Roche Inc., priority 1995, dated 1998)
Square brackets hold non-standard residues; d marks the D form. Peptide text beside a SMILES is read from it. * marks the point of attachment. Palmitoyl = CCCCCCCCCCCCCCCC(=O)*; dDab = NCC[C@@H](N)C(=O)O; Orn = NCCC[C@H](N)C(=O)O; dDap = NC[C@@H](N)C(=O)O; Dab = NCC[C@H](N)C(=O)O; Dap = NC[C@H](N)C(=O)O; NHNH2 = NN*

Tests used:
Format in all cases: cell-based
COS-1 cells = test: Transfection efficiency in COS-1 cells with a beta-galactosidase encoding plasmid; settings: for Beta-galactosidase activity 1 μg DNA/well / Beta-galactosidase activity 0.2 μg DNA/well: formulated as in example 1 (DOPE liposomes added to compound/DNA), 48 h after transfection
Method: Dioleoyl phosphatidylethanolamine (DOPE, Avanti Polar Lipids Inc.) liposomes were prepared by drying under vacuum the lipid in solution in chloroform and then rehydrating the lipid film with 30 mM Tris Cl pH 8.5. Final lipid concentration was 2 mM. The lipid dispersion was subsequently sonicated for 10-15 min in a sonicator bath (Elgasonic, 50 kHz).
(§1) Twenty μg of plasmid DNA were diluted with 260 μl of distilled, sterile water in a polystyrene sterile tube. […] 140 μl of DOPE liposomes were then slowly added, drop by drop, to obtain a molar ratio between DOPE and Nγ-palmitoyl-D-(α,γ-diaminobutyryl)-L-(α,γ-diaminobutyric acid) hydrazide of 5:1. The complex was carefully mixed. The preparation was allowed to stand at room temperature during about 5 min and was then added to COS-1 cells grown in 96-well plates.
as §1, with “Mixed micelles of DOPE (2 μmoles) and dicaproyl phosphatidylcholine (15 μmotes) were prepared by drying the lipids under vacuum and then rehydrating the lipid film with 1 ml of 30 mM TrisCl buffer pH 8.5. Twenty” for “Twenty”, “pCH110” for “DNA”, “distilled” for “distilled, sterile”, “DOPE/dicyproyl PC mixed micelles” for “DOPE liposomes”, “added” for “added, drop by drop,”
The mixture was added to 20 μg of plasmid DNA in 260 μl of distilled water, so that the +/- charge ratio between Nγ-palmitoyl-D-(α,γ-diaminobutyryl)-L-(α,γ-diaminobutyric acid) hydrazide and plasmid DNA was 2:1. The complex was carefully mixed. The preparation was allowed to stand at room temperature during about 5 min and was then added to COS-1 cells grown in 96-well plates.

293-EBNA = test: Transfection efficiency with a luciferase encoding vector, 293-EBNA cell-line
Method: (§2) A transfecting complex with Nγ-palmitoyl-D-(α,γ-diaminobutyryl)-L-(α,γ-diaminobutyric acid) hydrazide (compound A) was prepared as described in example 1. Lipofectamine™ complex was prepared following manufacturer's instructions. The transfection efficiency of both systems was compared in various cell-lines using a luciferase encoding vector.
(§3) Cells were transfected with a luciferase encoding plasmid and luciferase activity was measured 48 h after transfection. Results are expressed as relative light units.

CHO K1 = test: Transfection efficiency with a luciferase encoding vector, CHO K1 cell-line
Method: as §2, §3

HeLa = test: Transfection efficiency with a luciferase encoding vector, HeLa cell-line
Method: as §2, §3

LM tk- = test: Transfection efficiency with a luciferase encoding vector, LM tk- cell-line
Method: as §2, §3

Row | Molecule | Beta-galactosidase activity 1 μg DNA/well (COS-1 cells) | Beta-galactosidase activity 0.2 μg DNA/well (COS-1 cells) | other results
1 | CCCCCCCCCCCCCCCC(=O)N[C@@H](CCN)C(=O)NN [N^α palmitoyl-L (α,γ-diaminobutyric acid) hydrazide] | 1411 μunits of beta-galactosidase p | – | –
2 | CCCCCCCCCCCCCCCC(=O)N[C@@H](CCN)C(=O)N[C@@H](CCN)C(=O)NN [N^α palmitoyl-L (α,γ-diaminobutyryl)-L (α,γ-diaminobutyric acid) hydrazide] (Palmitoyl-[Dab]-[Dab]-NHNH2) | 3519 μunits of beta-galactosidase p | 2742 μunits of beta-galactosidase p | –
3 | CCCCCCCCCCCCCCCC(=O)N[C@@H](CCCNC(=N)N)C(=O)N[C@@H](CCCNC(=N)N)C(=O)OCC [N^α palmitoyl-L arginyl-L arginine ethyl ester] (Palmitoyl-Arg-Arg-OEt) | 382 μunits of beta-galactosidase p | 0 μunits of beta-galactosidase p | –
4 | CCCCCCCCCCCCCCCC(=O)N[C@@H](CCCNC(=N)N)C(=O)N[C@@H](CCCN)C(=O)OC [N^α palmitoyl-L arginyl-L ornithine methyl ester] (Palmitoyl-Arg-[Orn]-OMe) | 870 μunits of beta-galactosidase p | 0 μunits of beta-galactosidase p | –
5 | CCCCCCCCCCCCCCCC(=O)N[C@@H](CCCCN)C(=O)N[C@@H](CCCCN)C(=O)NCc1ccccc1 [N^α palmitoyl-L lysyl-L lysine benzylamide] | 845 μunits of beta-galactosidase p | 510 μunits of beta-galactosidase p | –
6 | CCCCCCCCCCCCCCCC(=O)N[C@@H](CCCCN)C(=O)N[C@@H](CCCCN)C(=O)O [N^α palmitoyl-L lysyl-L lysine] | 530 μunits of beta-galactosidase p | 0 μunits of beta-galactosidase p | –
7 | CCCCCCCCCCCCCCCC(=O)N[C@@H](CCCCN)C(=O)N[C@@H](CCCCN)C(=O)N[C@@H](CCCCN)C(=O)NN [N^α palmitoyl-L lysyl-L lysyl-L lysine hydrazide] | 2232 μunits of beta-galactosidase p | 136 μunits of beta-galactosidase p | –
8 | CCCCCCCCCCCCCCCC(=O)N[C@@H](CCCCN)C(=O)N[C@@H](CO)C(=O)OC [N^α palmitoyl-L lysyl-L serine methyl ester] | 219 μunits of beta-galactosidase p | 0 μunits of beta-galactosidase p | –
9 | CCCCCCCCCCCCCCCC(=O)N[C@@H](CCCN)C(=O)N[C@@H](CCCN)C(=O)OC [N^α palmitoyl-L ornithyl-L ornithine methyl ester] | 789 μunits of beta-galactosidase p | 44 μunits of beta-galactosidase p | –
10 | CCCCCCCCCCCCCCCC(=O)NCC[C@@H](N)C(=O)N[C@H](CCN)C(=O)N[C@@H](CCN)C(=O)NN [N^γ palmitoyl-D (α,γ-diaminobutyryl)-D (α,γ-diaminobutyryl)-L (α,γ-diaminobutyric acid) hydrazide] (H-[dDab](Palmitoyl)-[dDab]-[Dab]-NHNH2) | 7768 μunits of beta-galactosidase p | 1847 μunits of beta-galactosidase p | –
11 | CCCCCCCCCCCCCCCC(=O)NC[C@@H](N)C(=O)N[C@@H](CN)C(=O)OCC [N^γ palmitoyl-D (α,ε-diaminopropionyl)-L (α,ε-diaminopropionic acid) ethyl ester] (H-[dDap](Palmitoyl)-[Dap]-OEt) | 0 μunits of beta-galactosidase p | 359 μunits of beta-galactosidase p | –
12 | CCCCCCCCCCCCCCCC(=O)NCC[C@H](N)C(=O)N[C@H](CCN)C(=O)N[C@H](CCN)C(=O)N[C@@H](CCN)C(=O)NN [N^γ palmitoyl-L (α,γ-diaminobutyryl)-D (α,γ-diaminobutyryl)-D (α,γ-diaminobutyryl)-L (α,γ-diaminobutyric acid) hyrazide] (H-[Dab](Palmitoyl)[dDab][dDab][Dab]-NHNH2) | 542 μunits of beta-galactosidase p | 497 μunits of beta-galactosidase p | –
13 | CCCCCCCCCCCCCCCC(=O)NCC[C@H](N)C(=O)N[C@@H](CCN)C(=O)N[C@@H](CCN)C(=O)N[C@@H](CCN)C(=O)NN [N^γ palmitoyl-L (α,γ-diaminobutyryl)-L (α,γ-diaminobutyryl)-L (α,γ-diaminobutyryl)-L (α,γ-diaminobutyric acid) hydrazide] (H-[Dab](Palmitoyl)[Dab][Dab][Dab]-NHNH2) | 7835 μunits of beta-galactosidase p | 1800 μunits of beta-galactosidase p | –
14 | CCCCCCCCCCCCCCCC(=O)NCC[C@@H](N)C(=O)N[C@@H](CCN)C(=O)NN [cpd A, Nγ-palmitoyl-D-(α,γ-diaminobutyryl)-L-(α,γ-diaminobutyric acid) hydrazide] (H-[dDab](Palmitoyl)-[Dab]-NHNH2) | 9942 μunits of beta-galactosidase p | 5772 μunits of beta-galactosidase p | transfection efficiency expressed as beta-galactosidase activity (COS-1 cells; Example 2: DOPE/dicaproyl phosphatidylcholine mixed micelles, plasmid pCH110, 0.2 μg of DNA per well): 7280 μUnits per well; transfection efficiency expressed as beta-galactosidase activity (COS-1 cells; Example 2: DOPE/dicaproyl phosphatidylcholine mixed micelles, plasmid pCH110, 1 μg of DNA per well): 6375 μUnits per well; transfection efficiency expressed as beta-galactosidase activity (COS-1 cells; Example 3: compound premixed with DOPE liposomes, then added to DNA, 0.2 μg of DNA per well): 4205 μUnits per well; transfection efficiency expressed as beta-galactosidase activity (COS-1 cells; Example 3: compound premixed with DOPE liposomes, then added to DNA, 1 μg of DNA per well): 7880 μUnits per well; enhancement cpd A over Lipofectamine (293-EBNA): 5; enhancement cpd A over Lipofectamine (CHO K1): 33; enhancement cpd A over Lipofectamine (HeLa): 4; enhancement cpd A over Lipofectamine (LM tk-): 12
15 | N^α methyl arachidoyl-L lysyl-L lysine methyl ester | 148 μunits of beta-galactosidase p | 0 μunits of beta-galactosidase p | –
16 | N^α oleoyl-L lysyl-L lysine ethyl ester | 1333 μunits of beta-galactosidase p | 0 μunits of beta-galactosidase p | –
17 | N^α palmitoyl-L (α,γ-diaminobutyryl)-L lysine methyl ester | 791 μunits of beta-galactosidase p | – | –
18 | N^α palmitoyl-L lysyl-L lysine ethyl ester | 424 μunits of beta-galactosidase p | 138 μunits of beta-galactosidase p | –
19 | N^α palmitoyl-L lysyl-L lysine methyl ester | 150 μunits of beta-galactosidase p | 0 μunits of beta-galactosidase p | –
20 | N^γ γ palmitoyl-D (α,ε-diaminopropionyl)-L (α,ε-diaminopropionic acid) hydrazide | 3671 μunits of beta-galactosidase p | 0 μunits of beta-galactosidase p | –
21 | N^ε palmitoyl-L lysyl-L lysine methyl ester | 100 μunits of beta-galactosidase p | 0 μunits of beta-galactosidase p | –
22 | N^ε palmitoyl-L lysyl-L lysyl-L lysine methyl ester | 1426 μunits of beta-galactosidase p | 0 μunits of beta-galactosidase p | –
